Experimental data from ChEMBL document CHEMBL4402510, “Caprazamycins: Promising lead structures acting on a novel antibacterial target MraY” (Eur J Med Chem, 2019).
Converted amounts (≈) assume the structure as drawn.

Experiments:
[1] = target: T1, Phospho-N-acetylmuramoyl-pentapeptide-transferase (Aquifex aeolicus (strain VF5), UniProt O66465); experiment: Inhibition of MraY in Aquifex aeolicus
T1 sequence (O66465 whole entry): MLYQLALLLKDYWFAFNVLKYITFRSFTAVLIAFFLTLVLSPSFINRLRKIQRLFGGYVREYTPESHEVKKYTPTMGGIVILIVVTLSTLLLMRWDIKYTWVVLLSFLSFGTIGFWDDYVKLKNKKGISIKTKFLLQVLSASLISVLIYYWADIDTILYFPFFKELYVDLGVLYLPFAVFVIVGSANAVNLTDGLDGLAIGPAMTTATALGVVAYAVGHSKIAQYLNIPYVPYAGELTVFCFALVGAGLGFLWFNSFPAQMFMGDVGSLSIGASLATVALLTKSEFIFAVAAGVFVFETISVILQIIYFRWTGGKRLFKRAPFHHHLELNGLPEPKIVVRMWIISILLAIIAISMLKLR

Escherichia coli = experiment: Antibacterial activity against Escherichia coli expressing MraY; format: functional, organism-based
Enterococcus faecalis [2] = experiment: Antibacterial activity against Enterococcus faecalis ATCC 29212; format: functional
Staphylococcus aureus [3] = experiment: Antibacterial activity against methicillin resistant Staphylococcus aureus SR3637; format: functional
Enterococcus faecium = experiment: Antibacterial activity against Enterococcus faecium SR7917 (VRE); format: functional
Enterococcus faecalis [4] = experiment: Antibacterial activity against Enterococcus faecalis SR7914 (VRE); format: functional
Staphylococcus aureus [5] = experiment: Antibacterial activity against methicillin susceptible Staphylococcus aureus ATCC 29213; format: functional

SMILES	IC50 [1]	IC50 (Escherichia coli)	further results
NC[C@H]1O[C@@H](O[C@@H](Cn2cc(CCCCCCCCCCO)nn2)[C@H]2O[C@@H](n3ccc(=O)[nH]c3=O)[C@H](O)[C@@H]2O)[C@H](O)[C@@H]1O	75 µM		
NC[C@H]1O[C@@H](O[C@@H](Cc2cn(CCOCCOCCOCCOCCO)nn2)[C@H]2O[C@@H](n3ccc(=O)[nH]c3=O)[C@H](O)[C@@H]2O)[C@H](O)[C@@H]1O	750 µM		
NC[C@H]1O[C@@H](O[C@@H](Cn2cc(CCOCCOCCOCCOCCO)nn2)[C@H]2O[C@@H](n3ccc(=O)[nH]c3=O)[C@H](O)[C@@H]2O)[C@H](O)[C@@H]1O	450 µM		
C[N+](C)(C)C[C@H]1O[C@@H](OC[C@H]2O[C@@H](n3ccc(=O)[nH]c3=O)[C@H](O)[C@@H]2O)[C@H](O)[C@@H]1O		> 1000 µM	
NCCCCCCCCCc1cn(C[C@H](O[C@@H]2O[C@H](CN)[C@@H](O)[C@H]2O)[C@H]2O[C@@H](n3ccc(=O)[nH]c3=O)[C@H](O)[C@@H]2O)nn1	250 µM		
NC[C@H]1O[C@@H](OC[C@@H]2C[C@@H](O)[C@H](n3ccc(=O)[nH]c3=O)O2)[C@H](O)[C@@H]1O		10 µM	
CCCNC[C@H]1O[C@@H](OC[C@H]2O[C@@H](n3ccc(=O)[nH]c3=O)[C@H](O)[C@@H]2O)[C@H](O)[C@@H]1O		140 µM	
CNC[C@H]1O[C@@H](OC[C@H]2O[C@@H](n3ccc(=O)[nH]c3=O)[C@H](O)[C@@H]2O)[C@H](O)[C@@H]1O		45 µM	
NC[C@H]1O[C@@H](O[C@H](CO)[C@H]2O[C@@H](n3ccc(=O)[nH]c3=O)[C@H](O)[C@@H]2O)[C@H](O)[C@@H]1O		425 µM	
CCCCCCCCCCCCCCC[C@H](NC(=O)[C@@H](N)CCCNC(=N)N)C(=O)NC[C@@H]1CC2[C@@H](C(=O)N1)[C@H]([C@H]1O[C@@H](n3ccc(=O)[nH]c3=O)[C@H](O)[C@@H]1O)ON2CCCN (single isomer, unassigned)			MIC (Enterococcus faecalis [2]): 16 µg/mL (≈ 18.5 µM); MIC (Staphylococcus aureus [3]): 32 µg/mL (≈ 37 µM); MIC (Enterococcus faecium): 16 µg/mL (≈ 18.5 µM); MIC (Enterococcus faecalis [4]): 32 µg/mL (≈ 37 µM); MIC (Staphylococcus aureus [5]): > 64 µg/mL
NC[C@H]1O[C@@H](O[C@@H](Cn2cc(CCCCCO)nn2)[C@H]2O[C@@H](n3ccc(=O)[nH]c3=O)[C@H](O)[C@@H]2O)[C@H](O)[C@@H]1O	400 µM		
CC(=O)NC[C@H]1O[C@@H](OC[C@H]2O[C@@H](n3ccc(=O)[nH]c3=O)[C@H](O)[C@@H]2O)[C@H](O)[C@@H]1O		> 1000 µM	
CCCCCCCCCCCCCCCC(=O)NC[C@@H]1CC2[C@H](C(=O)N1CCCNC(=N)N)[C@@H]([C@H]1O[C@@H](n3ccc(=O)[nH]c3=O)[C@H](O)[C@@H]1O)ON2CCCN (single isomer, unassigned)			MIC (Enterococcus faecalis [2]): 16 µg/mL (≈ 20.6 µM); MIC (Staphylococcus aureus [3]): 16 µg/mL (≈ 20.6 µM); MIC (Enterococcus faecium): 8 µg/mL (≈ 10.3 µM); MIC (Enterococcus faecalis [4]): 16 µg/mL (≈ 20.6 µM); MIC (Staphylococcus aureus [5]): 16 µg/mL (≈ 20.6 µM)
CC(C)NC[C@H]1O[C@@H](OC[C@H]2O[C@@H](n3ccc(=O)[nH]c3=O)[C@H](O)[C@@H]2O)[C@H](O)[C@@H]1O		180 µM	
NC[C@@H]1C[C@@H](O)[C@H](OC[C@H]2O[C@@H](n3ccc(=O)[nH]c3=O)[C@H](O)[C@@H]2O)O1		> 1000 µM	
NC[C@H]1O[C@@H](O[C@@H](Cc2cn(CCCCCCCCCCO)nn2)[C@H]2O[C@@H](n3ccc(=O)[nH]c3=O)[C@H](O)[C@@H]2O)[C@H](O)[C@@H]1O	40 µM		
N=C(N)NC[C@H]1O[C@@H](OC[C@H]2O[C@@H](n3ccc(=O)[nH]c3=O)[C@H](O)[C@@H]2O)[C@H](O)[C@@H]1O		25 µM	

SMILES	IC50 [1]	IC50 (Escherichia coli)	further results
NCCCCCCCCCn1cc(C[C@H](O[C@@H]2O[C@H](CN)[C@@H](O)[C@H]2O)[C@H]2O[C@@H](n3ccc(=O)[nH]c3=O)[C@H](O)[C@@H]2O)nn1	200 µM		
CCNC[C@H]1O[C@@H](OC[C@H]2O[C@@H](n3ccc(=O)[nH]c3=O)[C@H](O)[C@@H]2O)[C@H](O)[C@@H]1O		150 µM	
O=CNC[C@H]1O[C@@H](OC[C@H]2O[C@@H](n3ccc(=O)[nH]c3=O)[C@H](O)[C@@H]2O)[C@H](O)[C@@H]1O		> 1000 µM	
NC[C@H]1O[C@@H](OC[C@H]2O[C@@H](n3ccc(=O)[nH]c3=O)[C@H](O)[C@@H]2O)C[C@@H]1O		115 µM	
NC[C@H]1O[C@@H](O[C@@H](Cn2cc(Cc3ccc(COc4ccc(C(=O)c5ccccc5)cc4)cc3)nn2)[C@H]2O[C@@H](n3ccc(=O)[nH]c3=O)[C@H](O)[C@@H]2O)[C@H](O)[C@@H]1O	100 µM		
NC[C@H]1O[C@@H](OC[C@@H]2CC[C@H](n3ccc(=O)[nH]c3=O)O2)[C@H](O)[C@@H]1O		120 µM	
CCCCCCCCCCCCCCC[C@H](NC(=O)[C@@H](N)CCCNC(=N)N)C(=O)NC[C@@H]1CC[C@H]2C(C(=O)N1)[C@H]([C@H]1O[C@@H](n3ccc(=O)[nH]c3=O)[C@H](O)[C@@H]1O)ON2CCCN (single isomer, unassigned)			MIC (Enterococcus faecalis [2]): 16 µg/mL (≈ 18.2 µM); MIC (Staphylococcus aureus [3]): 32 µg/mL (≈ 36.4 µM); MIC (Enterococcus faecium): 8 µg/mL (≈ 9.11 µM); MIC (Enterococcus faecalis [4]): 16 µg/mL (≈ 18.2 µM); MIC (Staphylococcus aureus [5]): 16 µg/mL (≈ 18.2 µM)
N/C=N/C[C@H]1O[C@@H](OC[C@H]2O[C@@H](n3ccc(=O)[nH]c3=O)[C@H](O)[C@@H]2O)[C@H](O)[C@@H]1O		30 µM	
NC[C@H]1O[C@@H](O[C@@H](Cc2cn(CCCCCO)nn2)[C@H]2O[C@@H](n3ccc(=O)[nH]c3=O)[C@H](O)[C@@H]2O)[C@H](O)[C@@H]1O	400 µM		
CCCCCCCCCCCCCCCC(=O)NC[C@@H]1CC[C@H]2C(C(=O)N1CCCNC(=N)N)[C@H]([C@H]1O[C@@H](n3ccc(=O)[nH]c3=O)[C@H](O)[C@@H]1O)ON2CCCN (single isomer, unassigned)			MIC (Enterococcus faecalis [2]): 16 µg/mL (≈ 20.2 µM); MIC (Staphylococcus aureus [3]): 16 µg/mL (≈ 20.2 µM); MIC (Enterococcus faecium): 16 µg/mL (≈ 20.2 µM); MIC (Enterococcus faecalis [4]): 16 µg/mL (≈ 20.2 µM); MIC (Staphylococcus aureus [5]): > 64 µg/mL
CN(C)C[C@H]1O[C@@H](OC[C@H]2O[C@@H](n3ccc(=O)[nH]c3=O)[C@H](O)[C@@H]2O)[C@H](O)[C@@H]1O		> 1000 µM	
CCCCCCCCCCCCCCC[C@H](NC(=O)[C@@H](N)CCCNC(=N)N)C(=O)NC[C@@H]1CC2[C@H](C(=O)N1)[C@@H]([C@H]1O[C@@H](n3ccc(=O)[nH]c3=O)[C@H](O)[C@@H]1O)ON2CCCN (single isomer, unassigned)			MIC (Enterococcus faecalis [2]): 32 µg/mL (≈ 37 µM); MIC (Staphylococcus aureus [3]): 32 µg/mL (≈ 37 µM); MIC (Enterococcus faecium): 16 µg/mL (≈ 18.5 µM); MIC (Enterococcus faecalis [4]): 32 µg/mL (≈ 37 µM); MIC (Staphylococcus aureus [5]): > 64 µg/mL
NC[C@H]1O[C@@H](OC[C@H]2O[C@@H](n3ccc(=O)[nH]c3=O)C[C@@H]2O)[C@H](O)[C@@H]1O		80 µM	
NC[C@H]1O[C@@H](O[C@@H](Cc2cn(CCCCCCCCCCOc3ccc(C(=O)c4ccccc4)cc3)nn2)[C@H]2O[C@@H](n3ccc(=O)[nH]c3=O)[C@H](O)[C@@H]2O)[C@H](O)[C@@H]1O	25 µM		
O=c1ccn([C@@H]2O[C@H](CO[C@@H]3O[C@H](CO)[C@@H](O)[C@H]3O)[C@@H](O)[C@H]2O)c(=O)[nH]1		> 1000 µM	
CCCCCCCCCCCCCCCC(=O)O[C@H]1CN(C)[C@@H]([C@H](O)[C@H]2O[C@@H](n3ccc(=O)[nH]c3=O)[C@H](O)[C@@H]2O)C(=O)N(C)[C@@H]1C(=O)O			MIC50 (Escherichia coli): > 100 µg/mL
